One data set relates to Sal. typhimurium. Put plainly: mutagenicity by the Ames' test.
Data set [1] relates to biosynthesis of DNA in L1210 cells. Put plainly: DNA biosynthesis in L1210 cells (incorporation of 14C-thymidine into acid-insoluble materials). The data set is classed as cell-based, murine. The note with it: Mus musculus, L1210, 1 h; 60 min, 37° C., 14C-thymidine 0.05 μCi/ml; read-out: IC50 of the incorporation of radioactivity into acid-insoluble materials, 14C-thymidine. How it is done:
(§1) (2) L1210 cells were inoculated at 5×10^5 cells/ml into a RPMI 1640 medium containing 10% calf serum and cultivated at 37° C. for 1 to 2 hours in a CO2 incubator. The compound in the present invention at various concentrations and ^14 C-thymidine (0.05 μCi/ml) or ^14 C-uridine (0.05 μCi/ml) were added and incubated at 37° C. for 60 min. After stopping the pulse-labeling by addition of 10% trichloroacetic acid (TCA) to the reaction mixture, acid-insoluble materials were precipitated, washed 3 times with 5 to 10% TCA, and dissolved in a small amount of formic acid, and then the radioactivity of the solution was determined. Effects on the biosynthesis of DNA and RNA were shown by the 50% inhibition concentration (IC50) of the incorporation of radioactivity into acid-insoluble materials.

Data set [2] has as its system murine leukemic L1210 cells. Put plainly: growth inhibition of murine leukemic L1210 cells in culture. Format: cell-based. The note with it: Mus musculus, RPMI 1640, 20% calf serum, 37° C., read-out: inhibition of control growth; for inhibition at 0.5 µg/mL: 0.5 μg/ml. The method, then:
For example, L1210 cells were inoculated into a RPMI 1640 medium (Nissui, Rosewell Park Memorial Institute 1640) containing 20% calf serum at the cell density of 5×10^4 cells/ml and the compound in the present invention was simultaneously added to the medium at the concentration of 0.1 and 0.5 μg/ml and cultivated at 37° C. in a CO2 incubator.

The test system of data set [3] is biosynthesis of RNA in L1210 cells. Put plainly: RNA biosynthesis in L1210 cells (incorporation of 14C-uridine into acid-insoluble materials). The data set is classed as cell-based, murine. The note with it: Mus musculus, L1210, 1 h; 60 min, 37° C., 14C-uridine 0.05 μCi/ml; read-out: IC50 of the incorporation of radioactivity into acid-insoluble materials, 14C-uridine. The method, then:
as §1

Another data set concerns leukemic L1210. Nature of the data set: antitumor activity in leukemic L1210-bearing mice. Format: in vivo, BDF1 mice. The note with it: in words. The method, then: (§2) For example, BDF1 mice were inoculated intraperitoneally with 1×10^6 cells/mouse. 24 hours after inoculation, the compound was intraperitoneally injected once daily for 10 days consecutively. […] At the dose of 10 mg/kg/day weight loss was observed, but general toxicity was less than daunomycin.

A short description of another data set: toxicity in mice. The data set is classed as in vivo. The note with it: in words. How it is done: as §2

≈ marks a conversion by molar mass, not a printed value. Where only a bound is given, the exact number is not on record here.

Experimental findings from patent US4267312A, “Anthracycline derivatives and process for preparing the same” (Sanraku-Ocean Co., Ltd., priority 1978, dated 1981) are described below.

A word on the inhibition: it is the relative decrease from the control value, in per cent. On to `COc1ccc(O)c2c1C(=O)c1c(O)c3c(c(O)c1C2=O)C[C@@](O)(C(C)O)C[C@@H]3O[C@H]1C[C@H](NC=O)[C@H](O)[C@H](C)O1` (stereo partly shown) [N-formyl-1-hydroxy-13-dihydrodaunomycin], for which the “mutagenicity relative to daunomycin” value with Sal. typhimurium was “decrease about a half of daunomycin”. Moreover, the IC50 in data set [1] and in data set [3] was greater than 2.5 µg/mL each time. For the same molecule, the inhibition at 0.5 µg/mL in data set [2] came to 16%. For the same molecule, the “antitumor activity in leukemic L1210-bearing mice” value in the data set with leukemic L1210 is “marked antitumor activity”. In addition, the “toxicity in mice compared with daunomycin” value in the data set “toxicity in mice” was “lower toxicity than daunomycin”.

`COc1ccc(O)c2c1C(=O)c1c(O)c3c(c(O)c1C2=O)C[C@@](O)(C(C)O)C[C@@H]3O[C@H]1C[C@H](N)[C@H](O)[C@H](C)O1` (stereo partly shown) [1-hydroxy-13-dihydrodaunomycin]: the “mutagenicity relative to daunomycin” value in the data set with Sal. typhimurium was “decrease about a half of daunomycin”. In addition, the IC50 in data set [1] turned out to be 3.8 µg/mL (≈ 6.97 µM); in data set [3], 1.8 µg/mL (≈ 3.3 µM). For the same molecule, in data set [2] (0.1 μg/ml), the inhibition at 0.1 µg/mL was determined as 10.8%. Also, the inhibition at 0.5 µg/mL in data set [2] was determined as 52.2%. The “antitumor activity in leukemic L1210-bearing mice” value with leukemic L1210 was “marked antitumor activity”. In the data set “toxicity in mice”, the “toxicity in mice compared with daunomycin” value was “lower toxicity than daunomycin”.
